# US20230143612A1 (Arbutus Biopharma Corporation, priority 2020, published 2023)
# Molecular target: PD-L1 His protein / PD-1 Fc protein (Homo sapiens, UniProt Q9NZQ7)
# Assay: HTRF Assay (PD-1/PD-L1 interaction)
# Format: binding
# Conditions: PD-L1 His 6 nM, PD-1 Fc 6 nM
# In short: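 Compounds tested from 20 μM down to 0.001 μM (3-fold) against 6 nM PD-L1 His and 6 nM PD-1 Fc, 15 min room temperature incubation. Detection after 1 h at room temperature with Tb cryptate anti-6HIS and XL665 anti-human IgG reagents (mixture at 0.35 nM and 6.7 nM), HTRF signal.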
# PD-L1 His protein / PD-1 Fc protein, sequence (Q9NZQ7 19-238 limits assumed): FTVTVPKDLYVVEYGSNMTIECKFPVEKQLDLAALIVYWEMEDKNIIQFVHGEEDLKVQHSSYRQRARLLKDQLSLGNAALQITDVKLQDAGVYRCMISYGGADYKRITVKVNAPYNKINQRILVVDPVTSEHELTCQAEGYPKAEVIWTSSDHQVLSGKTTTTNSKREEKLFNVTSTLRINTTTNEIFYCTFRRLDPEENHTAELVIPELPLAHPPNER
row,SMILES,IC50 [nM]
1,"CNC(=O)CNCc1cnc2cc(-c3cccc(-c4cccc(-c5ccc(CNC[C@@H]6CCC(=O)N6)c(OC)n5)c4Cl)c3Cl)ccn2c1=O [Example 202, (S)-2-(((8-(2,2′-Dichloro-3′-(6-methoxy-5-((((5-oxopyrrolidin-2-yl)methyl)amino)methyl)pyridin-2-yl)-[1,1′-biphenyl]-3-yl)-4-oxo-4H-pyrido[1,2-a]pyrimidin-3-yl)methyl)amino)-N-methylacetamide]",0.1
2,"COc1nc(-c2cccc(-c3cccc(-c4cc5ncc(CNC[C@H](C)O)cc5cn4)c3Cl)c2Cl)ccc1CNC[C@@H]1CCC(=O)N1 [Example 333, (S)-5-((((6-(2,2′-Dichloro-3′-(3-((((S)-2-hydroxypropyl)amino)methyl)-1,6-naphthyridin-7-yl)-[1,1′-biphenyl]-3-yl)-2-methoxypyridin-3-yl)methyl)amino)methyl)pyrrolidin-2-one]",0.7
3,"COC(=O)[C@H]1CCN(Cc2cnc3cc(-c4cccc(-c5cccc(-c6ccc(CNC[C@@H]7CCC(=O)N7)c(OC)n6)c5Cl)c4Cl)ccn3c2=O)C1 [Example 192, (S)-Methyl 1-((8-(2,2′-dichloro-3′-(6-methoxy-5-(((((S)-5-oxopyrrolidin-2-yl)methyl)amino)methyl)pyridin-2-yl)-[1,1′-biphenyl]-3-yl)-4-oxo-4H-pyrido[1,2-a]pyrimidin-3-yl)methyl)pyrrolidine-3-carboxylate]",0.8
4,"Cc1c(OCc2cc(OCc3cncc(C#N)c3)c(CNC[C@@H]3CCC(=O)N3)cc2Cl)cccc1-c1cccc(-c2ccc3c(c2)C(=O)N(C)CC(=O)N3CCNC[C@@H]2CCC(=O)N2)c1C [Example 27, 5-((4-Chloro-5-(((2,2′-dimethyl-3′-(4-methyl-2,5-dioxo-1-(2-((((S)-5-oxopyrrolidin-2-yl)methyl)amino)ethyl)-2,3,4,5-tetrahydro-1H-benzo[e][1,4]diazepin-7-yl)-[1,1′-biphenyl]-3-yl)oxy)methyl)-2-(((((S)-5-oxopyrrolidin-2-yl)methyl)amino)methyl)phenoxy)methyl)nicotinonitrile]",9.9
5,"COc1nc(-c2cccc(-c3cccc(-c4ccn5c(=O)c(C6=NCC(O)CN6)c(C)nc5c4)c3Cl)c2Cl)ccc1CNC[C@@H]1CCC(=O)N1 (stereo partly drawn) [Example 290, 8-(2,2′-dichloro-3′-(6-methoxy-5-(((((S)-5-oxopyrrolidin-2-yl)methyl)amino)methyl)pyridin-2-yl)-[1,1′-biphenyl]-3-yl)-3-(5-hydroxy-1,4,5,6-tetrahydropyrimidin-2-yl)-2-methyl-4H-pyrido[1,2-a]pyrimidin-4-one]",0.4
6,"COc1nc(-c2cccc(-c3cccc(-c4cc5c(=O)n(C)c(CNC6CC7(CCC(=O)N7)C6)nn5c4)c3Cl)c2Cl)ccc1CNC[C@@H]1CCC(=O)N1 (stereo partly drawn) [Example 449, 6-[2-Chloro-3-[2-chloro-3-[6-methoxy-5-[[[(2S)-5-oxopyrrolidin-2-yl]methylamino]methyl]-2-pyridyl]phenyl]phenyl]-3-methyl-2-[[(6-oxo-5-azaspiro[3.4]octan-2-yl)amino]methyl] pyrrolo[2,1-f][1,2,4]triazin-4-one]",450
7,"COc1nc(-c2cccc(-c3cccc(-c4nnc5n4CCN(CCO)C5)c3Cl)c2Cl)ccc1CNC[C@@H]1CCC(=O)N1 [Example 242, (S)-5-((((6-(2,2′-Dichloro-3′-(7-(2-hydroxyethyl)-5,6,7,8-tetrahydro-[1,2,4]triazolo[4,3-a]pyrazin-3-yl)-[1,1′-biphenyl]-3-yl)-2-methoxypyridin-3-yl)methyl)amino)methyl)pyrrolidin-2-one]",1700
8,"CCOc1nc(-c2cccc(-c3cccc(-c4ccn5c(=O)c(CNC[C@@H]6CCC(=O)N6)cnc5c4)c3C)c2Cl)ccc1CNC[C@@H]1CCC(=O)N1 [Example 72, 8-(2′-Chloro-3′-(6-ethoxy-5-(((((S)-5-oxopyrrolidin-2-yl)methyl)amino)methyl)pyridin-2-yl)-2-methyl-[1,1′-biphenyl]-3-yl)-3-(((((S)-5-oxopyrrolidin-2-yl)methyl)amino)methyl)-4H-pyrido[1,2-a]pyrimidin-4-one]",9.4
9,"COc1nc(-c2cccc(-c3cccc(-c4ccc5oc(CNC[C@@H]6CCC(=O)N6)nc5c4)c3Cl)c2Cl)ccc1CNC[C@@H]1CCC(=O)N1 [Example 247, (S)-5-((((6-(2,2′-Dichloro-3′-(2-(((((S)-5-oxopyrrolidin-2-yl)methyl)amino)methyl)benzo[d]oxazol-5-yl)-[1,1′-biphenyl]-3-yl)-2-methoxypyridin-3-yl)methyl)amino)methyl)pyrrolidin-2-one]",450
10,"COc1nc(-c2cccc(-c3cccc(-c4ccn5c(=O)c(CNCC(C)(O)C6CC6)cnc5c4)c3Cl)c2Cl)ccc1CNC[C@@H]1CCC(=O)N1 (mixture of isomers) [Example 280, 3-(((2-cyclopropyl-2-hydroxypropyl)amino)methyl)-8-(2,2′-dichloro-3′-(6-methoxy-5-(((((S)-5-oxopyrrolidin-2-yl)methyl)amino)methyl)pyridin-2-yl)-[1,1′-biphenyl]-3-yl)-4H-pyrido[1,2-a]pyrimidin-4-one]",37
11,"COc1nc(-c2cccc(-c3cccc(-c4ccn5c(=O)c(CNC[C@@H]6CCO6)cnc5c4)c3Cl)c2Cl)ccc1CNC[C@@H]1CCC(=O)N1 [Example 306, 8-[2-Chloro-3-[2-chloro-3-[6-methoxy-5-[[[(2S)-5-oxopyrrolidin-2-yl]methylamino]methyl]-2-pyridyl]phenyl]phenyl]-3-[[[(2S)-oxetan-2-yl]methylamino]methyl]pyrido[1,2-a]pyrimidin-4-one]",4.8
12,"COc1nc(-c2cccc(-c3cccc(-c4ccn5c(=O)c(CNCC(C)(C)O)cnc5c4)c3Cl)c2Cl)ccc1CNC[C@@H]1CCC(=O)N1 [Example 133, (S)-8-(2,2′-Dichloro-3′-(6-methoxy-5-((((5-oxopyrrolidin-2-yl)methyl)amino)methyl)pyridin-2-yl)-[1,1′-biphenyl]-3-yl)-3-(((2-hydroxy-2-methylpropyl)amino)methyl)-4H-pyrido[1,2-a]pyrimidin-4-one]",1.5
13,"COc1cc(-c2cccc(-c3cccc(-c4ccn5c(=O)c(CNC[C@@H]6CCC(=O)N6)cnc5c4)c3Cl)c2Cl)cnc1CNC[C@@H]1CCC(=O)N1 [Example 360, 8-(2,2′-Dichloro-3′-(5-methoxy-6-(((((S)-5-oxopyrrolidin-2-yl)-methyl)-amino)methyl)-pyridin-3-yl)-[1,1′-biphenyl]-3-yl)-3-(((((S)-5-oxopyrrolidin-2-yl)methyl)amino)methyl)-4H-pyrido[1,2-a]pyrimidin-4-one]",0.7
14,"COc1nc(-c2cccc(-c3cccc(-c4cc5c(=O)n(C)c(CN6CC(C(C)(C)O)C6)nn5c4)c3Cl)c2Cl)ccc1CNC[C@@H]1CCC(=O)N1 [Example 461, 6-[2-Chloro-3-[2-chloro-3-[6-methoxy-5-[[[(2S)-5-oxopyrrolidin-2-yl]methylamino]methyl]-2-pyridyl]phenyl]phenyl]-2-[[3-(1-hydroxy-1-methyl-ethyl)azetidin-1-yl]methyl]-3-methyl-pyrrolo[2,1-f][1,2,4]triazin-4-one]",13
15,"COc1nc(-c2cccc(-c3cccc(-c4ccn5c(Cl)c(CNC[C@@H]6CCC(=O)N6)nc5c4)c3Cl)c2Cl)ccc1CNC[C@@H]1CCC(=O)N1 [Example 382, (5S)-5-[[[6-[2-chloro-3-[2-chloro-3-[3-chloro-2-[[[(2S)-5-oxopyrrolidin-2-yl]methylamino]methyl]imidazo[1,2-a]pyridin-7-yl]phenyl]phenyl]-2-methoxy-3-pyridyl]methylamino]methyl]pyrrolidin-2-one]",110
16,"COc1nc(-c2cccc(-c3cccc(-c4ccn5c(=O)c(CNCC[C@@H]6CCC(=O)N6)cnc5c4)c3Cl)c2Cl)ccc1CNC[C@@H]1CCC(=O)N1 [Example 214, 8-[2-chloro-3-[2-chloro-3-[6-methoxy-5-[[[(2S)-5-oxopyrrolidin-2-yl]methylamino]methyl]-2-pyridyl]phenyl]phenyl]-3-[[2-[(2S)-5-oxopyrrolidin-2-yl]ethylamino]methyl]pyrido[1,2-a]pyrimidin-4-one]",0.5
17,"COc1nc(-c2cccc(-c3cccc(-c4ccc5nc(CNC[C@@H]6CCC(=O)N6)ncc5c4)c3Cl)c2Cl)ccc1CNC[C@@H]1CCC(=O)N1 [Example 422, (S)-5-((((6-(2,2′-Dichloro-3′-(2-(((((S)-5-oxopyrrolidin-2-yl)methyl)amino)methyl)quinazolin-6-yl)-[1,1′-biphenyl]-3-yl)-2-methoxypyridin-3-yl)methyl)amino)methyl)pyrrolidin-2-one]",4.1
18,"COc1nc(-c2cccc(-c3cccc(-c4ccn5c(=O)c(CNC[C@@H]6CCC(=O)N6)cnc5c4)c3Cl)c2Cl)ccc1CN1CC[C@H](C(=O)O)C1 [Example 118, (S)-1-((6-(2,2′-Dichloro-3′-(4-oxo-3-(((((S)-5-oxopyrrolidin-2-yl)methyl)amino)methyl)-4H-pyrido[1,2-a]pyrimidin-8-yl)-[1,1′-biphenyl]-3-yl)-2-methoxypyridin-3-yl)methyl)pyrrolidine-3-carboxylic acid]",0.2
19,"COc1nc(-c2cccc(-c3cccc(-c4ccn5c(=O)c(CNC(C)(C)CC(=O)O)cnc5c4)c3Cl)c2Cl)ccc1CNC[C@@H]1CCC(=O)N1 [Example 154, (S)-3-(((8-(2,2′-Dichloro-3′-(6-methoxy-5-((((5-oxopyrrolidin-2-yl)methyl)amino)-methyl)pyridin-2-yl)-[1,1′-biphenyl]-3-yl)-4-oxo-4H-pyrido[1,2-a]pyrimidin-3-yl)methyl)amino)-3-methylbutanoic acid]",0.4
20,"Cn1cc(CNC[C@@H]2CCC(=O)N2)c2ccc(-c3cccc(-c4cccc(-c5ccn6c(=O)c(CNC[C@@H]7CCC(=O)N7)cnc6c5)c4Cl)c3Cl)cc21 [Example 453, 8-[2-Chloro-3-[2-chloro-3-[1-methyl-3-[[[(2S)-5-oxopyrrolidin-2-yl]methylamino]methyl]indol-6-yl]phenyl]phenyl]-3-[[[(2S)-5-oxopyrrolidin-2-yl]methylamino]methyl]pyrido[1,2-a]pyrimidin-4-one]",1200
